# Biological target: T1, human recombinant PDE9 enzyme (Homo sapiens, UniProt O76083)
# T1 construct: made in house; host or cells: SF-9 insect cells
# Assay: Phosphodiesterase 9 (PDE9) inhibitory activity, Scintillation Proximity (SPA) assay
# Assay type: biochemical
# Conditions: human recombinant PDE9 from SF-9 cells; 50 nM [3H]cGMP; room temperature, 30 min; additional compounds Ex. 115-228; read-out: G5678A (U):IC50
# How it was run: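 Recombinant human PDE9 from SF-9 cell lysate supernatant, diluted so that ≤20% of [3H]cGMP substrate was hydrolysed to 5′GMP. Reaction started with enzyme and run 30 min at room temperature with 2% DMSO final. SPA beads were counted after >300 min; background came from a high concentration of a PDE inhibitor.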
# T1 sequence (O76083 whole entry): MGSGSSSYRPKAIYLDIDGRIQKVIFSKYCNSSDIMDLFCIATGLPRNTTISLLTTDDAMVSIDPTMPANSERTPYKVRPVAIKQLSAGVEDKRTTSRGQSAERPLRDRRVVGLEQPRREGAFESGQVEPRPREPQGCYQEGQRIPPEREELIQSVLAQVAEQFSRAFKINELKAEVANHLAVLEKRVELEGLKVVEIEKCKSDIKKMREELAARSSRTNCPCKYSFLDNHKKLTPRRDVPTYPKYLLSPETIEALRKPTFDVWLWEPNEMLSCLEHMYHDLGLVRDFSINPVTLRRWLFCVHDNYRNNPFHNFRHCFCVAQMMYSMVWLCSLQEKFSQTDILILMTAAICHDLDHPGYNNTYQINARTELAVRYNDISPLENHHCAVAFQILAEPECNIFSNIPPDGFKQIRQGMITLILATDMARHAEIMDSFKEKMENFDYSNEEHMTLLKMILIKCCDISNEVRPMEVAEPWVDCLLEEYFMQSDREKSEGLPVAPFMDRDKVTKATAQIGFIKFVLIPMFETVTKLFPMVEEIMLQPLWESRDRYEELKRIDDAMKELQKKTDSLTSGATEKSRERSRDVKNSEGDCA
row,IC50 [nM],SMILES
1,91.6,"C[C@@H]1CN(Cc2cccc(-n3cccn3)n2)C[C@H]1c1nc2c(cnn2C2CCCC2)c(=O)[nH]1 (racemic) [Example 135, 1-cyclopentyl-6-[(3,4-trans)-4-methyl-1-{[6-(1H-pyrazol-1-yl)pyridin-2-yl]methyl}pyrrolidin-3-yl]-1,5-dihydro-4H-pyrazolo[3,4-d]pyrimidin-4-one]"
2,132,"Cc1ccc(CN2C[C@@H](C)[C@H](c3nc4c(cnn4C4CCCC4)c(=O)[nH]3)C2)cc1 (racemic) [Example 136, 1-cyclopentyl-6-[(3,4-trans)-4-methyl-1-(4-methylbenzyl)pyrrolidin-3-yl]-1,5-dihydro-4H-pyrazolo[3,4-d]pyrimidin-4-one]"
3,54.5,"C[C@@H]1CN(Cc2ccc3ccccc3c2)C[C@H]1c1nc2c(cnn2C2CCCC2)c(=O)[nH]1 (racemic) [Example 137, 1-cyclopentyl-6-[(3,4-trans)-4-methyl-1-(2-naphthylmethyl)pyrrolidin-3-yl]-1,5-dihydro-4H-pyrazolo[3,4-d]pyrimidin-4-one]"
4,47.7,"COc1ncccc1CN1C[C@@H](C)[C@H](c2nc3c(cnn3C3CCCC3)c(=O)[nH]2)C1 (racemic) [Example 138, 1-cyclopentyl-6-{(3,4-trans}-1-[(2-methoxypyridin-3-yl)methyl]-4-methylpyrrolidin-3-yl}-1,5-dihydro-4H-pyrazolo[3,4-d]pyrimidin-4-one]"
5,97.5,"CCOc1ccccc1CN1C[C@@H](C)[C@H](c2nc3c(cnn3C3CCCC3)c(=O)[nH]2)C1 (racemic) [Example 139, 1-cyclopentyl-6-[(3,4-trans)-1-(2-ethoxybenzyl)-4-methylpyrrolidin-3-yl]-1,5-dihydro-4H-pyrazolo[3,4-d]pyrimidin-4-one]"
6,26.8,"C[C@@H]1CN(Cc2ccc(-n3cncn3)cc2)C[C@H]1c1nc2c(cnn2C2CCCC2)c(=O)[nH]1 (racemic) [Example 140, 1-cyclopentyl-6-{(3,4-trans)-4-methyl-1-[4-(1H-1,2,4-triazol-1-yl)benzyl]pyrrolidin-3-yl}-1,5-dihydro-4H-pyrazolo[3,4-d]pyrimidin-4-one]"
7,53.1,"COc1cc(CN2C[C@@H](C)[C@H](c3nc4c(cnn4C4CCCC4)c(=O)[nH]3)C2)ccc1C (racemic) [Example 141, 1-cyclopentyl-6-[(3,4-trans)-1-(3-methoxy-4-methylbenzyl)-4-methylpyrrolidin-3-yl]-1,5-dihydro-4H-pyrazolo[3,4-d]pyrimidin-4-one]"
8,47.5,"C[C@@H]1CN(Cc2cccc3ccccc23)C[C@H]1c1nc2c(cnn2C2CCCC2)c(=O)[nH]1 (racemic) [Example 142, 1-cyclopentyl-6-[(3,4-trans)-4-methyl-1-(1-naphthylmethyl)pyrrolidin-3-yl]-1,5-dihydro-4H-pyrazolo[3,4-d]pyrimidin-4-one]"
9,99.6,"COc1ccc(OC)c(CN2C[C@@H](C)[C@H](c3nc4c(cnn4C4CCCC4)c(=O)[nH]3)C2)c1 (racemic) [Example 144, 1-cyclopentyl-6-[(3,4-trans)-1-(2,5-dimethoxybenzyl)-4-methylpyrrolidin-3-yl]-1,5-dihydro-4H-pyrazolo[3,4-d]pyrimidin-4-one]"
10,77.4,"Cc1cc(CN2C[C@@H](C)[C@H](c3nc4c(cnn4C4CCCC4)c(=O)[nH]3)C2)no1 (racemic) [Example 145, 1-cyclopentyl-6-{(3,4-trans)-4-methyl-1-[(5-methylisoxazol-3-yl)methyl]pyrrolidin-3-yl}-1,5-dihydro-4H-pyrazolo[3,4-d]pyrimidin-4-one]"
11,165,"COc1cccc(F)c1CN1C[C@@H](C)[C@H](c2nc3c(cnn3C3CCCC3)c(=O)[nH]2)C1 (racemic) [Example 146, 1-cyclopentyl-6-[(3,4-trans)-1-(2-fluoro-6-methoxybenzyl)-4-methylpyrrolidin-3-yl]-1,5-dihydro-4H-pyrazolo[3,4-d]pyrimidin-4-one]"
12,79.8,"C[C@@H]1CN(Cc2ccc(F)cc2F)C[C@H]1c1nc2c(cnn2C2CCCC2)c(=O)[nH]1 (racemic) [Example 147, 1-cyclopentyl-6-[(3,4-trans)-1-(2,4-difluorobenzyl)-4-methylpyrrolidin-3-yl]-1,5-dihydro-4H-pyrazolo[3,4-d]pyrimidin-4-one]"
13,36,"COc1cc(CN2C[C@@H](C)[C@H](c3nc4c(cnn4C4CCCC4)c(=O)[nH]3)C2)ccc1F (racemic) [Example 148, 1-cyclopentyl-6-[(3,4-trans)-1-(4-fluoro-3-methoxybenzyl)-4-methylpyrrolidin-3-yl]-1,5-dihydro-4H-pyrazolo[3,4-d]pyrimidin-4-one]"
14,47.1,"C[C@@H]1CN(Cc2cccc3c2OCCO3)C[C@H]1c1nc2c(cnn2C2CCCC2)c(=O)[nH]1 (racemic) [Example 149, 1-cyclopentyl-6-[(3,4-trans)-1-(2,3-dihydro-1,4-benzodioxin-5-ylmethyl)-4-methylpyrrolidin-3-yl]-1,5-dihydro-4H-pyrazolo[3,4-d]pyrimidin-4-one]"
15,93.5,"C[C@@H]1CN(Cc2ccc(F)cc2Cl)C[C@H]1c1nc2c(cnn2C2CCCC2)c(=O)[nH]1 (racemic) [Example 150, 6-[(3,4-trans)-1-(2-chloro 4-fluorobenzyl)-4-methylpyrrolidin-3-yl]-1-cyclopentyl-1,5-dihydro-4H-pyrazolo[3,4-] pyrimidin-4-one]"
16,117,"Cc1ccc(CN2C[C@@H](C)[C@H](c3nc4c(cnn4C4CCCC4)c(=O)[nH]3)C2)c(C)c1 (racemic) [Example 151, 1-cyclopentyl-6-[(3,4-trans)-1-(2,4-dimethylbenzyl)-4-methylpyrrolidin-3-yl]-1,5-dihydro-4H-pyrazolo[3,4-d]pyrimidin-4-one]"
17,42.2,"COc1cc(CN2C[C@@H](C)[C@H](c3nc4c(cnn4C4CCCC4)c(=O)[nH]3)C2)cc(OC)c1 (racemic) [Example 152, 1-cyclopentyl-6-[(3,4-trans)-1-(3,5-dimethoxybenzyl)-4-methylpyrrolidin-3-yl]-1,5-dihydro-4H-pyrazolo[3,4-d]pyrimidin-4-one]"
18,54.4,"CCOc1cccc(CN2C[C@@H](C)[C@H](c3nc4c(cnn4C4CCCC4)c(=O)[nH]3)C2)c1 (racemic) [Example 153, 1-cyclopentyl-6-[(3,4-trans)-1-(3-ethoxybenzyl)-4-methylpyrrolidin-3-yl]-1,5-dihydro-4H-pyrazolo[3,4-d]pyrimidin-4-one]"
19,175,"C[C@@H]1CN(Cc2ccc(Cl)cc2F)C[C@H]1c1nc2c(cnn2C2CCCC2)c(=O)[nH]1 (racemic) [Example 154, 6-[(3,4-trans)-1-(4-chloro-2-fluorobenzyl)-4-methylpyrrolidin-3-yl]-1-cyclopentyl-1,5-dihydro-4H-pyrazolo[3,4-d]pyrimidin-4-one]"
20,27.9,"C[C@@H]1CN(Cc2cccc(C#N)c2)C[C@H]1c1nc2c(cnn2C2CCCC2)c(=O)[nH]1 (racemic) [Example 155, 3-{[(3,4-trans)-3-(1-cyclopentyl-4-oxo-4,5-dihydro-1H-pyrazolo[3,4-d]pyrimidin-6-yl)-4-methylpyrrolidin-1-yl]methyl}benzonitrile]"
21,40.8,"C[C@@H]1CN(Cc2cc(F)ccc2F)C[C@H]1c1nc2c(cnn2C2CCCC2)c(=O)[nH]1 (racemic) [Example 156, 1-cyclopentyl-6-[(3,4-trans)-1-(2,5-difluorobenzyl)-4-methylpyrrolidin-3-yl]-1,5-dihydro-4H-pyrazolo[3,4-d]pyrimidin-4-one]"
22,56.4,"C[C@@H]1CN(Cc2ccccc2C#N)C[C@H]1c1nc2c(cnn2C2CCCC2)c(=O)[nH]1 (racemic) [Example 157, 2-{[(3,4-trans)-3-(1-cyclopentyl-4-oxo-4,5-dihydro-1H-pyrazolo[3,4-d]pyrimidin-6-yl)-4-methylpyrrolidin-1-yl]methyl}benzonitrile]"
23,50.9,"C[C@@H]1CN(Cc2ccc(F)c(Cl)c2)C[C@H]1c1nc2c(cnn2C2CCCC2)c(=O)[nH]1 (racemic) [Example 158, 6-[(3,4-trans)-1-(3-chloro-4-fluorobenzyl)-4-methylpyrrolidin-3-yl]-1-cyclopentyl-1,5-dihydro-4H-pyrazolo[3,4-d]pyrimidin-4-one]"
24,59.9,"C[C@@H]1CN(Cc2ccc(OC(F)F)cc2)C[C@H]1c1nc2c(cnn2C2CCCC2)c(=O)[nH]1 (racemic) [Example 159, 1-cyclopentyl-6-{(3,4-trans)-1-[4-(difluoromethoxy)benzyl]-4-methylpyrrolidin-3-yl}-1,5-dihydro-4H-pyrazolo[3,4-d]pyrimidin-4-one]"
25,43.4,"Cc1cccc(CN2C[C@@H](C)[C@H](c3nc4c(cnn4C4CCCC4)c(=O)[nH]3)C2)c1 (racemic) [Example 160, 1-cyclopentyl-6-[(3,4-trans)-4-methyl-1-(3-methylbenzyl)pyrrolidin-3-yl]-1,5-dihydro-4H-pyrazolo[3,4-d]pyrimidin-4-one]"
26,40.4,"C[C@@H]1CN(Cc2ccc(F)c(F)c2)C[C@H]1c1nc2c(cnn2C2CCCC2)c(=O)[nH]1 (racemic) [Example 161, 1-cyclopentyl-6-[(3,4-trans)-1-(3,4-difluorobenzyl)-4-methylpyrrolidin-3-yl]-1,5-dihydro-4H-pyrazolo[3,4-d]pyrimidin-4-one]"
27,60.1,"Cc1ccc(C)c(CN2C[C@@H](C)[C@H](c3nc4c(cnn4C4CCCC4)c(=O)[nH]3)C2)c1 (racemic) [Example 162, 1-cyclopentyl-6-[(3,4-trans)-1-(2,5-dimethylbenzyl)-4-methylpyrrolidin-3-yl]-1,5-dihydro-4H-pyrazolo[3,4-d]pyrimidin-4-one]"
28,53.4,"C[C@@H]1CN(Cc2cccc(Cl)c2F)C[C@H]1c1nc2c(cnn2C2CCCC2)c(=O)[nH]1 (racemic) [Example 163, 6-[(3,4-trans)-1-(3-chloro-2-fluorobenzyl)-4-methylpyrrolidin-3-yl]-1-cyclopentyl-1,5-dihydro-4H-pyrazolo[3,4-d]pyrimidin-4-one]"
